Measurements taken from patent US20120219535A1, “CRANIAL NEURAL CREST STEM CELLS AND CULTURE CONDITION THAT SUPPORTS THEIR GROWTH” (University of Southern California, priority 2009, published 2012).
Entries after “also recorded” stand apart in the source; their conditions may differ.

Experiments:
[1] = test system: primary cultured cranial neural crest cells; test: AG490 (Jak inhibitor) treatment of primary cultured cranial neural crest cells, alive cell count; type: cell-based, mouse; conditions: E8.5 FACS sorted cells
Protocol: (§1) AG490 (Sigma Chemical Co., St Louis, Mo., USA) was reconstituted in dimethyl sulfoxide (DMSO) and stored at −20° C. A stock concentration was 10 mM. Cranial tissues of Wnt1-Cre;R26R;EGFP mouse at E8.5 were dissociated by 0.025% trypsin and 1 mg/ml collagenase in DPBS. Then, neural crest cells labeled with Wnt1-Cre;R26R;EGFP were sorted by means of FACS and used for Jak inhibitor treatment. D7-1 or primary cultured cranial neural crest cells were seeded to fibronectin coated plate at a density of 20000 or 12700 cell/cm^2 respectively, and incubated for three days in basal medium as described above, added with either control DMSO, 10 μM AG490, or 20 μM AG490. Culture medium was changed daily. Alive cell number was counted on each day for D7-1 and third day for primary cultured cells.
These experiments were done with a long-term cultured craNCSC clone, D7-1, which has been treated with LIF during entire culture process. Therefore, it is possible that D7-1 cells has been poised to LIF and adopted to the JAK-STAT dependent culture condition. To evaluate this, Applicants freshly isolated Wnt1-Cre;R26R;EGFP positive cranial neural crest cells from E8.5 mouse embryos by FACS sorting and treated them with AG490 for three days. If JAK2 activity is dispensable to these primary neural crest, chemical treatment would not cause any apparent effects. […]

[2] = test system: human B-precursor leukemic cell line; conditions: by inducing apoptosis; cited from earlier work
[3] = test system: cells which are independent from the JAK-STAT signal; conditions: cited from earlier work
STAT3 negative cells = conditions: 80 μM AG490; cited from earlier work
craNCSC clone D7-1 = test: AG490 (Jak inhibitor) treatment of long-term cultured craNCSC clone D7-1, alive cell count; type: cell-based, mouse; conditions: counted daily, vs 0.4% DMSO vehicle
Protocol: as §1
The hypothesis that phosphorylation of STAT3 by JAK kinase is essential for the maintenance of craNCSC was also investigated. JAK inhibitor AG490 was used for this study. AG490 is synthetic PTK inhibitor with anti-JAK2 activity. […] If craNCSC require the JAK-STAT signal for its maintenance, treatment of AG490 will cause overt effects. 10 μM and 20 μM AG490 treatment against D7-1 was performed for three days and alive cell number was counted on each day. […] Dose dependent susceptibility of D7-1 against AG490 was also evident.

**Q.** For N#C/C(=C/c1ccc(O)c(O)c1)C(=O)NCc1ccccc1 [AG490], which “cell mortality (alive cell number)” value ([1]; 10 μM AG490, three days) is on record?
**A.** Its value is “High cell mortality”.

**Q.** And the “cell mortality (alive cell number)” value ([1]; 20 μM AG490, three days)?
**A.** The value was “High cell mortality”.

**Q.** What about the cell growth [2] of the same compound?
**A.** The cell growth was “prevents the growth”.

**Q.** And the effect on cells [3]?
**A.** The effect on cells was “no obvious effect”.

**Q.** And the general toxicity (STAT3 negative cells)?
**A.** The general toxicity was “does not cause general toxicity”.

**Q.** And the “alive (viable) cell number” value (craNCSC clone D7-1; 10 μM AG490, three days)?
**A.** Its value is “smaller effect; also recorded: more modest effect”.

**Q.** What about the “alive (viable) cell number” value (craNCSC clone D7-1; 20 μM AG490, three days) of the same compound?
**A.** Its value is “significant reduction of the viable cells; also recorded: significant depletion of cell survival”.
